Data from patent US6255303A, “Phthalazinone PDE III/IV inhibitors” (Byk Gulden Lomberg Chemische Fabrik GmbH, priority 1998, dated 2001).

Experiments:
PDE4 = assay: Inhibition of PDE isoenzymes: PDE4 (cAMP-specific), cytosol of human polymorphonuclear leukocytes, cAMP as substrate; assay type: biochemical; details: cytosol of human PMNL; 0.5 μM cAMP; motapizone (1 μM) to suppress PDE3; pH 7.4, 37° C., 15 min
PDE3 = target: T1, PDE3 (Homo sapiens, UniProt Q14432); assay: Inhibition of PDE isoenzymes: PDE3 (cGMP-inhibited), homogenates of human blood platelets; assay type: biochemical; details: 0.5 μM cAMP or cGMP, pH 7.4, 37° C., 15 min, read-out: -log IC50 PDE3 (converted)
T1 construct: investigated in homogenates of human blood platelets; from tissue; host or cells: human blood platelets (homogenate)
T1 sequence (Q14432 whole entry): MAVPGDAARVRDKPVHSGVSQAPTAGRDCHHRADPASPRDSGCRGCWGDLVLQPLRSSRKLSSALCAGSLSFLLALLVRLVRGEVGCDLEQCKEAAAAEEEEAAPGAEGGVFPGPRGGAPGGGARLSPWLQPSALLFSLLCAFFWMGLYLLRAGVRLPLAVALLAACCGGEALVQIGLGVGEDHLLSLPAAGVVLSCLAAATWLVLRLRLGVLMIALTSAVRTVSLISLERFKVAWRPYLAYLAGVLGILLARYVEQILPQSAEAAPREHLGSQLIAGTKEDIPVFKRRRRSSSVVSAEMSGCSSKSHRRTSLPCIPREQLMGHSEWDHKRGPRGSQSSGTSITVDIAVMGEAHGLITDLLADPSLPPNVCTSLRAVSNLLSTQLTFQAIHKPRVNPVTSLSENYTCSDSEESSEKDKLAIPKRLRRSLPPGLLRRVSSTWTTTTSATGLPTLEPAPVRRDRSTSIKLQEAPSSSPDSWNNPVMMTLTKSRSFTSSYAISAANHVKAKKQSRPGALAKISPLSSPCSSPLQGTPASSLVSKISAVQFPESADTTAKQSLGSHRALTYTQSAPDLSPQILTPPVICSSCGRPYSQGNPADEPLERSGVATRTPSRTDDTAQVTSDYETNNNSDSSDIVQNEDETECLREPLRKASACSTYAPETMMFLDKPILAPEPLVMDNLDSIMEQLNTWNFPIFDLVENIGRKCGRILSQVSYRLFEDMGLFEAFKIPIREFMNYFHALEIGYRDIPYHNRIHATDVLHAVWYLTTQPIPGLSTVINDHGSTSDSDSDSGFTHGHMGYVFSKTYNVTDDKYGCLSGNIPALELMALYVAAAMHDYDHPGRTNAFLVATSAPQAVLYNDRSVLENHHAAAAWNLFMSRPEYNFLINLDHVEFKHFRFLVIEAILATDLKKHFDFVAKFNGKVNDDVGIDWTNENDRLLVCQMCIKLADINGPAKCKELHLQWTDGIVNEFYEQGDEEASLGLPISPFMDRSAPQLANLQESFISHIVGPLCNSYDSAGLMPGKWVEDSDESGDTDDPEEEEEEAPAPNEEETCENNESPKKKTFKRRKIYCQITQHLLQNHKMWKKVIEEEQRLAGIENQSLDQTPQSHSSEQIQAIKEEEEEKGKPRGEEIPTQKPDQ

| -log IC50 PDE4 (PDE4) | IC50 (PDE3) | SMILES |
| --- | --- | --- |
| 7.77 mol/l | 0.0355 µM | COc1ccc(C2=NN(CCCCOc3ccc(C4=NNC(=O)CC4C)cc3)C(=O)[C@H]3CC=CC[C@@H]23)cc1Cl (relative stereo) [Compound 13, (cis)-6-(4-[4-{4-(3-Chloro-4-methoxyphenyl)-1-oxo-4a,5,8,8a-tetrahydro-2H-phthalazin-2-yl}-1-butyloxy)phenyl]-4,5-dihydro-5-methyl-2H-pyridazin-3-one] |
| 8.05 mol/l | 0.275 µM | CCOc1ccc(C2=NN(c3ccc(C4=NNC(=O)CC4C)cc3)C(=O)[C@H]3CC=CC[C@@H]23)cc1OCC (relative stereo) [Compound 14, (cis)-4-(3,4-diethoxyphenyl)-2-{4-(4-methyl-6-oxo-1,4,5,6-tetrahydropyridazin-3-yl)phenyl}-4a,5,8,8a-tetrahydro-2H-phthalazin-1-one] |
| 8.60 mol/l | 0.209 µM | CCOc1ccc(C2=NN(CCCCOc3ccc(C4=NNC(=O)CC4C)cc3)C(=O)[C@H]3CC=CC[C@@H]23)cc1OCC (relative stereo) [Compound 15, (cis)-6-(4-[4-{4-(3,4-diethoxyphenyl)-1-oxo-4a,5,8,8a-tetrahydro-2H-phthalazin-2-yl}-1-butyloxy)phenyl]-4,5-dihydro-5-methyl-2H-pyridazin-3-one] |
| 8.64 mol/l | 0.437 µM | COc1ccc(C2=NN(c3ccc(C4=NNC(=O)CC4C)cc3)C(=O)[C@@H]3CC=CC[C@H]23)cc1OC (stereo partly drawn) [Compound 16, (4aS,8aR)-4-[4-{4-(3,4-dimethoxyphenyl)-1-oxo-4a,5,8,8a-tetrahydro-2H-phthalazin-2-yl}phenyl]-5,6-dihydro-5-methylpyridazin-1-one] |

The remaining lines, values behind:

| SMILES | -log IC50 PDE4 (PDE4) | IC50 (PDE3) |
| --- | --- | --- |
| COc1ccc(C2=NN(c3ccc(C4=NNC(=O)CC4C)cc3)C(=O)[C@H]3CC=CC[C@@H]23)cc1OC (relative stereo) [Compound 2, (cis)-4-(3,4-Dimethoxyphenyl)-2-{4-(4-methyl-6-oxo-1,4,5,6-tetrahydropyridazin-3-yl)phenyl}-4a,5,8,8a-tetrahydro-2H-phthalazin-1-one] | 8.36 mol/l | 0.204 µM |
| COc1ccc(C2=NN(c3ccc(C(=O)Nc4ccc(C5=NNC(=O)CC5C)cc4)cc3)C(=O)[C@H]3CC=CC[C@@H]23)cc1OC (relative stereo) [Compound 4, (cis)-N-{4-(4-Methyl-6-oxo-1,4,5,6-tetrahydro-pyridazin-3-yl)phenyl}-4-{4-(3,4-dimethoxyphenyl)-1-oxo-4a,5,8,8a-tetrahydro-1H-phthalazin-2-yl}benzamide] | 8.48 mol/l | 0.891 µM |
| COc1ccc(C2=NN(CC(=O)Nc3ccc(-c4ccc(=O)[nH]n4)cc3)C(=O)[C@@H]3CC=CC[C@H]23)cc1OC (relative stereo) [Compound 5] | 8.10 mol/l | 1.26 µM |
| COc1ccc(C2=NN(CCCCC(=O)Nc3ccc(-c4ccc(=O)[nH]n4)cc3)C(=O)[C@@H]3CC=CC[C@H]23)cc1OC (relative stereo) [Compound 6] | 8.17 mol/l | 0.832 µM |
| COc1ccc(C2=NN(CC(=O)Nc3ccc(C4=NNC(=O)CC4C)cc3)C(=O)[C@H]3CC=CC[C@@H]23)cc1OC (relative stereo) [Compound 7, (cis)-N-{4-(4-Methyl-6-oxo-1,4,5,6-tetrahydro-pyridazin-3-yl)phenyl}-2-{4-(3,4-dimethoxy-phenyl)-1-oxo-4a,5,8,8a-tetrahydro-1H-phthalazin-2-yl}acetamide] | 8.40 mol/l | 0.182 µM |
| COc1ccc(C2=NN(C(C)CCC(=O)Nc3ccc(C4=NNC(=O)CC4C)cc3)C(=O)[C@H]3CC=CC[C@@H]23)cc1OC (relative stereo) [Compound 8, (cis)-N-{4-(4-Methyl-6-oxo-1,4,5,6-tetrahydro-pyridazin-3-yl)phenyl}-4-{4-(3,4-dimethoxyphenyl)-1-oxo-4a,5,8,8a-tetrahydro-1H-phthalazin-2-yl}valeramide] | 8.17 mol/l | 0.1 µM |
| COc1ccc(C2=NN(c3ccc(C(=O)Nc4ccc(-c5ccc(=O)[nH]n5)cc4)cc3)C(=O)[C@H]3CC=CC[C@@H]23)cc1OC (relative stereo) [Compound 9, (cis)-N-{4-(6-Oxo-1,6-dihydro-pyridazin-3-yl)phenyl}-4-(4-{3,4-dimethoxyphenyl}-1-oxo-4a,5,8,8a-tetrahydro-1H-phthalazin-2-yl)benzamide] | 9.08 mol/l | 4.9 µM |
| COc1ccc(C2=NN(c3ccc(C4=NNC(=O)CC4C)cc3)C(=O)[C@H]3CC=CC[C@@H]23)cc1Cl (relative stereo) [Compound 12, (cis)-4-(3-chloro-4-methoxyphenyl)-2-{4-(4-methyl-6-oxo-1,4,5,6-tetrahydropyridazin-3-yl)phenyl}-4a,5,8,8a-tetrahydro-2H-phthalazin-1-one] | 7.00 mol/l | 0.0813 µM |
